Tests used:
[1] = system: SSTR; details: five patients with primary EBV-positive NPC; cited from earlier work
[2] = system: LMP1-induced SSTR2 expression in NP69 cells; assay: LMP1-induced SSTR2 expression in NP69 cells under pathway inhibitors; format: cell-based, human; details: NP69 cells expressing LMP1
Text: FIGS. 2A-2K. EBV infection is associated with SSTR2 upregulation in NPC—in vitro experiments and external validation dataset. a Immunofluorescence analysis of EBNA1 (red) and SSTR2 (green) expression in two representative examples of cultured primary respiratory epithelial cells before and after infection with the epitheliotropic M81 EBV strain. Nuclei are counterstained with DAPI (blue); Replication (n=5). b Percentages of cells positive for EBNA1 or co-expression of SSTR2 and EBNA1 c LMP1 induces SSTR2 expression in NP69, an immortalized normal nasopharyngeal epithelial cell line (relative quantities of SSTR2 were calculated using the comparative threshold cycle method and normalized using human beta-actin as endogenous control. Data is presented as a ratio relative to vector control). d LMP1-mediated SSTR2 induction in NP69 cells is inhibited by ectopic expression of TRAF3, a negative regulator of NF-κB. e In NP69 cells, LMP1-induced SSTR2 expression is suppressed by the NF-κB inhibitor BAY 11-7085 and MEK inhibitor U0126. f Both CTAR1 and CTAR2 regions of LMP1 (FIG. 6) are essential for LMP1-mediated SSTR2 induction. […] The color of the samples is based on unsupervised hierarchical clustering. […] Middle panel, Microarray SSTR2 expression is positively correlated with viral LMP1 expression (W=129, p=0.041, Wilcoxon two-sided test). […]

[3] = system: SSTR2 expression in C666-1 cells; assay: SSTR2 expression in C666-1 cells under pathway inhibitors; format: cell-based
[4] = system: C666-1 cells; assay: MTT-based cell viability assay (in vitro proliferation/survival); details: 7 days, dilutions starting from 10 μM
Protocol: (§1) Culture of the cell lines. C666-1 cells were cultured in RPMI-1640 with 25 mM Hepes (Lonza, Berlin, Germany) supplemented with 10% heat-inactivated FCS (Gibco, Carlsbad, CA), 2 mM L-Glutamine, 100 units/ml penicillin (Gibco), and 0.1 mg/ml streptomycin (Gibco). Cells were maintained at 37° C., 5% CO2 and passaged every 7 days at a 1:2 ratio using accutase (Sigma, St. Louis, MO, USA). Seventy-five percent of culture medium was replaced by fresh medium every 2-3 days. NPC43 and C17 cell lines were cultured in RPMI-1640 with 25 mM Hepes (Lonza, Berlin, Germany) supplemented with 10% heat-inactivated FCS (Gibco, Carlsbad, CA), 2 mM L-Glutamine, 100 units/ml penicillin (Gibco) and 0.1 mg/ml streptomycin (Gibco) and 4 μM Y27632 (Promocell, Heidelberg, Germany). Cells were maintained at 37° C., 5% CO2 and passaged 5 days at a 1:4 ratio using accutase (Sigma, St. Louis, MO, USA). Culture medium was replaced by fresh medium every 2 to 3 days.
(§2) MTT-based cell viability assay. Two days prior addition of test compounds, NPC cells were plated at a density of 2×10^4 cells/well in 96-well plates. Compounds were prepared as advised by manufacturers, diluted half logarithmic in medium and added to the wells in quadruplicate starting from 10 μM (30 μM for cisplatin). PEN-211 containing medium was removed after 2 h, cells were washed with PBS and fresh medium was added. Plates were incubated in a humified chamber for 7 days; 50% of medium were exchanged every other day with fresh drug dilutions. MTT (3-[4,5-dimethylthiazol-2-yl]-2,5 diphenyl tetrazolium bromide) reagent (20 μl/well of 5 mg/ml solution) (Sigma-Aldrich) was added and solubilized after 4 h using 100 μl of a […] SDS/0.01M HCl solution. Dual absorbance was measured after 5 h in a microplate reader (Epoch BioTek, BioTek Instruments, Bad Friedrichshall, Germany) using 550 nm as measurement and 655 nm as reference filter. After subtraction of background absorbance, fractions of surviving cells were obtained by normalization to the mean of nontreated samples.

[5] = system: NPC43 cells; assay: as above; details: 7 days, dilutions starting from 10 μM
Protocol: as §1, §2

[6] = system: C666-1 cells; assay: RNA-seq analysis of C666-1 cells treated with SSTR2-targeted drugs; format: cell-based; details: for cell senescence pathways (geneset enrichment) / pathways related to somatostatin biology such as interleukin signaling (geneset enrichment) / cell death/apoptotic pathways (geneset enrichment): 24 h post-treatment; for cell death/apoptotic pathways (geneset enrichment): lanreotide or octreotide; for SSTR2 expression (RNA-seq): lanreotide or octreotide treatment
Protocol: RNA-seq analysis. C666-1 cells were seeded at a density of 1×10^6/well in six-well plates 2 days prior to compound addition. […] Untreated and DMSO-treated (1:2000 in medium) wells were used as controls. 24 and 72 h post-PEN-221 addition, DNA and RNA extraction was performed from separate wells using Quick-DNA Plus and Direct-zol RNA Plus Kit (Zymo Research, Irvine, CA, USA) according to the manufacturers' instructions.
RNA concentration was normalized to 100 ng/50 μl and Illumina libraries prepared using a NEBNext Poly(A) mRNA Magnetic Isolation Module in conjunction with a NEBNext Ultra II Directional RNA Library Prep Kit (New England Biolabs), according to the manufacturer's instructions using adapters diluted 1:50. Libraries were quantitated using the Agilent High Sensitivity D1000 ScreenTape System on a 2200 Tapestation (Agilent), pooled at equimolar concentration, denatured and sequenced on a NextSeq 500 (Illumina). RNA sequencing transcript abundance was estimated from fastq files using the reference-free quantification tool salmon with the gencode GRCh37 transcript annotation. Differential expression analysis was performed using DESeq237 with treatment, time and batch (where applicable) as covariates. Geneset enrichment analysis was performed using the GSEA function from clusterProfiler, with the reactome database pathways on the gene DESeq2 Wald statistics and a minimum and maximum pathway size of 25 and 500, respectively.

| Compound | tumor uptake [1] | LMP1-induced SSTR2 expression [2] | SSTR2 expression [3] | in vitro proliferation [4] | in vitro proliferation [5] | cell senescence pathways (geneset enrichment) [6] | pathways related to somatostatin biology such as interleukin signaling (geneset enrichment) [6] | cell death/apoptotic pathways (geneset enrichment) [6] | SSTR2 expression (RNA-seq) [6] | cell senescence pathways (geneset enrichment) ([6]; listed as Lanreotide) |
| --- | --- | --- | --- | --- | --- | --- | --- | --- | --- | --- |
| C[C@@H](O)[C@@H]1NC(=O)[C@H](CCCCN)NC(=O)[C@@H](Cc2c[nH]c3ccccc23)NC(=O)[C@H](Cc2ccc(O)cc2)NC(=O)[C@@H](NC(=O)[C@@H](Cc2ccccc2)NC(=O)CN2CCN(CC(=O)[O-])CCN(CC(=O)[O-])CCN(CC(=O)[O-])CC2)CSSC[C@@H](C(=O)N[C@H](CO)[C@@H](C)O)NC1=O.[68Ga+3] [68Ga-DOTA-(Tyr3)-octreotide, ^68Ga-labeled 1,4,7,10-tetraazacyclododecane-N,N9,N99,N999 tetraacetic acid-D-Phe1-Tyr3-octreotide (DOTA-TOC)] | increased uptake | – | – | – | – | – | – | – | – | – |
| N#CC(=C(/N)Sc1ccccc1N)/C(C#N)=C(\N)Sc1ccccc1N [U0126] | – | suppressed | suppressed | – | – | – | – | – | – | – |
| CC(C)(C)c1ccc(S(=O)(=O)/C=C/C#N)cc1 [BAY 11-7085] | – | suppressed | suppressed | – | – | – | – | – | – | – |
| C[C@@H](O)[C@@H]1NC(=O)[C@H](CCCCN)NC(=O)[C@@H](Cc2c[nH]c3ccccc23)NC(=O)[C@H](Cc2ccccc2)NC(=O)[C@@H](NC(=O)[C@H](N)Cc2ccccc2)CSSC[C@@H](C(=O)N[C@H](CO)[C@@H](C)O)NC1=O [octreotide] | – | – | – | did not affect in vitro proliferation | did not affect in vitro proliferation | upregulation of cell senescence pathways | induced upregulation | no changes | did not affect SSTR2 expression | – |
| CC(C)[C@@H]1NC(=O)[C@H](CCCCN)NC(=O)[C@@H](Cc2c[nH]c3ccccc23)NC(=O)[C@H](Cc2ccc(O)cc2)NC(=O)[C@@H](NC(=O)[C@H](N)Cc2ccc3ccccc3c2)CSSC[C@@H](C(=O)N[C@H](C(N)=O)[C@@H](C)O)NC1=O [lanreotide] | – | – | – | did not affect in vitro proliferation | did not affect in vitro proliferation | upregulation of senescence pathways | induced upregulation | no changes | did not affect SSTR2 expression | upregulation of cell senescence pathways |

— patent US20230405156A1, “METHODS OF DIAGNOSING AND PROGNOSING CANCERS OF THE HEAD AND NECK” (priority 2021, published 2023)
